Results published in patent US20150353495A1 (PORTOLA PHARMACEUTICALS, INC., priority 2010, published 2015).

How the values were obtained:
[1] = tested on: JAK1/3 signaling to STAT6 in Ramos B cells; test: IL4 stimulation of JAK1/3 signaling to STAT6 in Ramos B cells (pSTAT6 Y641, FACS); type: cell-based; details: Homo sapiens; for inhibition at 0.2 µM: 0.2 uM compound, read-out: IL-4/STAT6 in Ramos Percent Inhibition at 0.2 uM; for inhibition at 1 µM: 1.0 uM compound, read-out: IL-4/STAT6 in Ramos Percent Inhibition at 1.0 uM
Outline: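 Phospho-STAT6 Y641 was measured by FACS using a PE-labelled antibody after fixation (2% paraformaldehyde) and methanol permeabilization. Before this, Ramos cells were exposed to compound for 1 h, then to 15 ng IL4 for 15 min.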

JAK1 = biological target: T1, JAK1 (Homo sapiens, UniProt P23458); test: Z'-LYTE kinase assay JAK1; type: biochemical
T1 construct: 5 μl of catalytic domain recombinant Kinase enzyme+Tyr peptide substrate (Invitrogen, CA); purchased Invitrogen
T1 sequence (P23458 875-1153 limits assumed): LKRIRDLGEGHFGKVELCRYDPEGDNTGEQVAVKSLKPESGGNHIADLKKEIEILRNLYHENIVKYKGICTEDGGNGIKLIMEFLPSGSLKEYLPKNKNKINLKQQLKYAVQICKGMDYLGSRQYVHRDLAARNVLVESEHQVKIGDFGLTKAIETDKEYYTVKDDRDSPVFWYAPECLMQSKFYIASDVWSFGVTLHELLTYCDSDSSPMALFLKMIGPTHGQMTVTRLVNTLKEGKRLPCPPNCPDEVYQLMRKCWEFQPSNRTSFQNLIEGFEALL
Outline: (§1)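 In duplicate wells, each test molecule (1% final DMSO) is incubated with recombinant kinase catalytic domain, Tyr6 peptide substrate and ATP for one hour at room temperature; a site-specific protease is then added for another hour before fluorescence reading.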

JAK2 = biological target: T2, JAK2 (Homo sapiens, UniProt O60674); test: Z'-LYTE kinase assay JAK2; type: biochemical
T2 construct: 5 μl of catalytic domain recombinant Kinase enzyme+Tyr peptide substrate (Invitrogen, CA); purchased Invitrogen
T2 sequence (O60674 849-1124 limits assumed): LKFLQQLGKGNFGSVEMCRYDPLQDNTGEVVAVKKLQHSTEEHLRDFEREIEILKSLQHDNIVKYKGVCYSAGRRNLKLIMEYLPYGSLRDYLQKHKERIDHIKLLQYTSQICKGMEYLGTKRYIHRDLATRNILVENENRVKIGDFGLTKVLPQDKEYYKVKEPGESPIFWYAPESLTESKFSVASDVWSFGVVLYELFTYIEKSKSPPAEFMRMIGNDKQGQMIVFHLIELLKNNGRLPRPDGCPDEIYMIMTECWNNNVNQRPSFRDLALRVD
Outline: as §1

[2] = tested on: JAK1/3 signaling to STAT5 in primary T cells; test: IL2 stimulation of JAK1/3 signaling to STAT5 in primary T cells (pSTAT5 Y694, FACS); type: cell-based; details: T-cell; for inhibition at 0.2 µM: 0.2 uM compound, read-out: IL-2/STAT5 Percent Inhibition at 0.2 uM; for inhibition at 1 µM: 1.0 μM compound, read-out: IL-2/STAT5 Percent Inhibition at 1.0 μM
Method: IL2 Stimulation of JAK1/3 Signaling to STAT5 in Primary T Cells:
The effect of JAK inhibitors on cytokine signaling pathways utilizing JAK3 was determined using an IL2 stimulation assay. IL2 engages a receptor complex that contains the IL2 receptor alpha and beta subunits, and the common gamma chain, to initiate activation of JAK1 and JAK3 leading to phosphorylation of STAT5 at tyrosine position 694. Lymphocytes are isolated from heparinized whole blood over a ficoll gradient, then resuspended in tissue culture media containing 10% fetal calf serum at 10×10̂6 cells/ml. 100 μl aliquots are pre-treated for 1 hour with various concentrations of compound, and then stimulated for 12 minutes with 100 U/ml IL2. The signaling reaction is terminated by fixing in 2% paraformaldehyde for 10 minutes at room temperature. Fixed cells are then washed and permeablized by suspension in 50% methanol (in PBS) at −80° C. Following overnight incubation at 4° C., cells are washed and resuspended in PBS containing 0.5% bovine serum albumin containing CD3-APC and pSTAT5 Y694-PE conjugated antibodies. After 1 hour incubation, cells are washed and the extent of STAT5 phosphorlyation in T cells is measured by FACS analysis.

TYK2 = biological target: T3, TYK2 (Homo sapiens, UniProt P29597); test: Z'-LYTE kinase assay TYK2; type: biochemical
T3 construct: 5 μl of catalytic domain recombinant Kinase enzyme+Tyr peptide substrate (Invitrogen, CA); purchased Invitrogen
T3 sequence (P29597 897-1176 limits assumed): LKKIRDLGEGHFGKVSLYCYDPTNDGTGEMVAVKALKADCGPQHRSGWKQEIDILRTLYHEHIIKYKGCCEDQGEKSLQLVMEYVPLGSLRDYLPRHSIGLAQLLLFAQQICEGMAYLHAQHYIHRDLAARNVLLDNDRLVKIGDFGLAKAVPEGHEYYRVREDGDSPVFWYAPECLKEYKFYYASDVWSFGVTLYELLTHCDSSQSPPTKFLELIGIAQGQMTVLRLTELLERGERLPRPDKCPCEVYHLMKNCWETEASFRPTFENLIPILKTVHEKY
Outline: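 IC50 derived by 4-parameter logistic fit of percent substrate phosphorylation relative to uninhibited wells. Tyr6 peptide phosphorylated by recombinant TYK2 catalytic domain for 1 h at room temperature (1% DMSO), cleaved by development protease 1 h, FRET emission ratio 445/520 nm.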

JAK3 = biological target: T4, JAK3 (Homo sapiens, UniProt P52333); test: Z'-LYTE kinase assay JAK3; type: biochemical
T4 construct: 5 μl of catalytic domain recombinant Kinase enzyme+Tyr peptide substrate (Invitrogen, CA); purchased Invitrogen
T4 sequence (P52333 822-1111 limits assumed): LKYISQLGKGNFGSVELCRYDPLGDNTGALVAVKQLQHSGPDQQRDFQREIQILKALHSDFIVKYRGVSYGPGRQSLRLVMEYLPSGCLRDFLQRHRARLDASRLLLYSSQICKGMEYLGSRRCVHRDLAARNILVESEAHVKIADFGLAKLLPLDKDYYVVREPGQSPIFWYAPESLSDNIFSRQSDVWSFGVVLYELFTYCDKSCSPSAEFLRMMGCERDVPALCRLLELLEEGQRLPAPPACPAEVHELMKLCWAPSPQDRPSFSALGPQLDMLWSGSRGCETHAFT
Outline: as §1

IC50 (JAK1) | IC50 (JAK2) | IC50 (TYK2) | IC50 (JAK3) | Compound | inhibition at 0.2 µM [1] | inhibition at 1 µM [1] | inhibition at 0.2 µM [2] | inhibition at 1 µM [2]
100 to 1000 nM | 100 to 1000 nM | > 1000 nM | 1 to 10 nM | CC(=O)N1CCN(c2ccc(Nc3cc(N[C@H](C)c4ccccc4)c(C(N)=O)cn3)cc2)CC1 [Example 7, (R)-6-(4-(4-acetylpiperazin-1-yl)phenylamino)-4-(1-phenylethylamino)nicotinamide] | 10% | 40% | 29% | 74%
100 to 1000 nM | 10 to 100 nM | 100 to 1000 nM | 1 to 10 nM | NC(=O)c1cnc(Nc2ccc(N3CCOCC3)cc2)cc1NCc1cccc(F)c1 [Example 67, 4-(3-fluorobenzylamino)-6-(4-morpholinophenylamino)nicotinamide] | 48% | 69% | 61% | 89%
10 to 100 nM | 10 to 100 nM | 10 to 100 nM | 1 to 10 nM | NC(=O)c1cnc(Nc2ccc(C(=O)N3CCC3)cc2)cc1NCc1c(F)cccc1F [Example 105, 6-(4-(azetidine-1-carbonyl)phenylamino)-4-(2,6-difluorobenzylamino)nicotinamide] | 53% | 88% | 72% | 99%
100 to 1000 nM | 10 to 100 nM | 100 to 1000 nM | 1 to 10 nM | NC(=O)c1cnc(Nc2ccc(C3CCN(C(=O)C4CCOCC4)CC3)cc2)cc1NCc1ccccc1F [Example 119, 4-(2-fluorobenzylamino)-6-(4-(1-(tetrahydro-2H-pyran-4-carbonyl)piperidin-4-yl)phenylamino)nicotinamide] | 17% | 47% | 54% | 83%
> 1000 nM | 100 to 1000 nM | > 1000 nM | 1 to 10 nM | NC(=O)c1cnc(Nc2ccc(N3CCOCC3)cc2)cc1NCc1ccccc1 [Example 250, 4-(benzylamino)-6-(4-morpholinophenylamino)nicotinamide] | 11% | 26% | 18% | 50%
100 to 1000 nM | 10 to 100 nM | 100 to 1000 nM | 1 to 10 nM | CC(=O)N1CCN(c2ccc(Nc3cc(NCc4cccc(F)c4F)c(C(N)=O)cn3)cc2)CC1 [Example 256, 6-(4-(4-acetylpiperazin-1-yl)phenylamino)-4-(2,3-difluorobenzylamino)nicotinamide] | 37% | 64% | 69% | 100%
> 1000 nM | 100 to 1000 nM | > 1000 nM | 1 to 10 nM | NC(=O)c1cnc(Nc2ccc(OCCN3CCCC3)cc2)cc1NCc1ccccc1 [Example 428, 4-(benzylamino)-6-(4-(2-(pyrrolidin-1-yl)ethoxy)phenylamino)nicotinamide] | 33% | 46% | 56% | 84%
100 to 1000 nM | 100 to 1000 nM | > 1000 nM | 1 to 10 nM | NC(=O)c1cnc(Nc2ccc(OCCN3CCOCC3)cc2)cc1NCc1ccccc1 [Example 429, 4-(benzylamino)-6-(4-(2-morpholinoethoxyl)phenylamino)nicotinamide] | 19% | 33% | 60% | 77%

The remaining lines, values behind:

Compound | IC50 (JAK1) | IC50 (JAK2) | IC50 (TYK2) | IC50 (JAK3) | inhibition at 0.2 µM [1] | inhibition at 1 µM [1] | inhibition at 0.2 µM [2] | inhibition at 1 µM [2]
NC(=O)c1cnc(Nc2ccc(C(=O)N3CCCC3)cc2)cc1NCc1ccccc1 [Example 39, 4-(benzylamino)-6-(4-(pyrrolidine-1-carbonyl)phenylamino)nicotinamide] | 100 to 1000 nM | 100 to 1000 nM | 100 to 1000 nM | 1 to 10 nM | 47% | 52% | 37% | 65%
NC(=O)c1cnc(Nc2cccc(OCCN3CCCC3)c2)cc1N[C@H](CO)c1ccccc1 [Example 59, (S)-4-(2-hydroxy-1-phenylethylamino)-6-(3-(2-(pyrrolidin-1-yl)ethoxy)phenylamino)nicotinamide] | > 1000 nM | 100 to 1000 nM | > 1000 nM | 1 to 10 nM | 11% | 27% | 12% | 50%
Cc1cc(Nc2cc(NCc3cccc(F)c3)c(C(N)=O)cn2)ccc1N1CCCC1=O [Example 61, 4-(3-fluorobenzylamino)-6-(3-methyl-4-(2-oxopyrrolidin-1-yl)phenylamino)nicotinamide] | 100 to 1000 nM | 10 to 100 nM | 100 to 1000 nM | 1 to 10 nM | 40% | 60% | 39% | 67%
CCC(=O)N1CCC(c2ccc(Nc3cc(NCc4ccccc4F)c(C(N)=O)cn3)cc2)CC1 [Example 79] | 100 to 1000 nM | 100 to 1000 nM | 100 to 1000 nM | 10 to 100 nM | 20% | 43% | 53% | 73%
CN1CCC(c2ccc(Nc3cc(NCc4ccccc4F)c(C(N)=O)cn3)cc2)CC1 [Example 107, 4-(2-fluorobenzylamino)-6-(4-(1-methylpiperidin-4-yl)phenylamino)nicotinamide] | 100 to 1000 nM | 100 to 1000 nM | 100 to 1000 nM | 1 to 10 nM | 43% | 73% | 58% | 82%
NC(=O)c1cnc(Nc2cccc(C(=O)N3CCCCC3)c2)cc1NCc1ccccc1 [Example 249, 4-(benzylamino)-6-(3-(piperidine-1-carbonyl)phenylamino)nicotinamide] | 100 to 1000 nM | 100 to 1000 nM | > 1000 nM | 10 to 100 nM | 23% | 32% | 12% | 29%
